Data on 4 molecules can be found in patent publication US12441742B2, “Naphthyridine compounds as inhibitors of KRAS” (Incyte Corporation, priority 2021, dated 2025).

Assay [1] deals with T1, KRAS G12C (Homo sapiens, UniProt P01116, G12C). Put plainly: KRAS_G12C GDP-GTP exchange assay (bodipy-GDP/GppNHp, SOS1). It is filed as biochemical. Conditions: bodipy-loaded KRAS G12C, 2 hours pre-incubation, 2 hours exchange; read-out: G12C_exchange (KRAS_G12C exchange assay IC50). The method, then: The inhibitor potency of the exemplified compounds was determined in a fluorescence based guanine nucleotide exchange assay, which measures the exchange of bodipy-GDP (fluorescently labeled GDP) for GppNHp (Non-hydrolyzable GTP analog) to generate the active state of KRAS in the presence of SOS1 (guanine nucleotide exchange factor). Inhibitors were serially diluted in DMSO and a volume of 0.1 μL was transferred to the wells of a black low volume 384-well plate. 5 μL/well volume of bodipy-loaded KRAS G12C diluted to 5 nM in assay buffer (25 mM Hepes pH 7.5, 50 mM NaCl, 10 mM MgCl2 and 0.01% Brij-35) was added to the plate and pre-incubated with inhibitor for 2 hours at ambient temperature. Appropriate controls (enzyme with no inhibitor or with a G12C inhibitor (AMG-510)) were included on the plate. The exchange was initiated by the addition of a 5 μL/well volume containing 1 mM GppNHp and 300 nM SOS1 in assay buffer. The 10 μL/well reaction concentration of the bodipy-loaded KRAS G12C, GppNHp, and SOS1 were 2.5 nM, 500 uM, and 150 nM, respectively. The reaction plates were incubated at ambient temperature for 2 hours, a time estimated for complete GDP-GTP exchange in the absence of inhibitor. Internal compounds with confirmed binding were used as positive controls in the assay plates. Fluorescence intensities were measured on a PheraStar plate reader instrument (BMG Labtech) with excitation at 485 nm and emission at 520 nm.
Either GraphPad prism or XLfit was used to analyze the data. The IC50 values were derived by fitting the data to a four parameter logistic equation producing a sigmoidal dose-response curve with a variable Hill coefficient. Prism equation: Y=Bottom+(Top−Bottom)/(1+10^((Log IC50−X)*Hill slope)); XLfit equation: Y=(A+((B−A)/(1+((X/C)^D)))) where X is the logarithm of inhibitor concentration and Y is the response.

Assay [2] concerns the target T1, KRAS G12C. Briefly: KRAS_G12C cellular pERK HTRF assay. Type of assay: cell-based. More on the design: host or cells: MIA PaCa-2. Conditions: MIA PaCa-2 (KRAS G12C), 4 hours; read-out: G12C_pERK (KRAS_G12C pERK assay IC50). The method, then:
MIA PaCa-2 (KRAS G12C; ATCC® CRL-1420), A427 (KRAS G12D; ATCC® HTB53), HPAF-II (KRAS G12D; ATCC® CRL-1997) and NCI-H838 (KRAS WT; ATCC® CRL-5844) cells are purchased from ATCC and maintained in RPMI 1640 media supplemented with 10% FBS (Gibco/Life Technologies). The cells are plated at 5000 cells per well (8 uL) into Greiner 384-well low volume, flat-bottom, tissue culture treated white plates and incubated overnight at 37° C., 5% CO2. The next morning, test compound stock solutions are diluted in media at 3x the final concentration, and 4 uL are added to the cells. The plate is mixed by gentle rotation for 30 seconds (250 rpm) at room temperature. The cells are incubated with the KRAS G12C and G12D compounds for 4 hours or 2 hours respectively at 37° C., 5% CO2.
4 uL of 4x lysis buffer with blocking reagent (1:25) (Cisbio) are added to each well and plates are rotated gently (300 rpm) for 30 minutes at room temperature. 4 uL per well of Cisbio anti Phospho-ERK 1/2 d2 is mixed with anti Phospho-ERK 1/2 Cryptate (1:1) are added to each well, mixed by rotation and incubated overnight in the dark at room temperature. Plates are read on the Pherastar plate reader at 665 nm and 620 nm wavelengths. IC50 determination is performed by fitting the curve of inhibitor percent inhibition versus the log of the inhibitor concentration using the GraphPad Prism 7 software.
Background: TR-FRET usually uses a lanthanide donor and a delayed reading to cut background.

T1 sequence (P01116 1-188 isoform P01116-2 G12C): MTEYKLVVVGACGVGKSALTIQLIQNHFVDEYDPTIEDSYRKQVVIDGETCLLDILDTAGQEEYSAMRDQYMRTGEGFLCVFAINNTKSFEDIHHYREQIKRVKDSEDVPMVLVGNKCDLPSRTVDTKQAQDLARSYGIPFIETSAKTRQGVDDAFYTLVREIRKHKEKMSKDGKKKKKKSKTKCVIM

Consider `CCN(C)C1CN(c2nc3c(F)c(-c4ccc(F)c5cccnc45)ncc3c3c2nnn3[C@H]2CCN(C(=O)/C=C/CF)[C@H](CC#N)C2)C1` [Example 12, 2-((2S,4S)-4-(4-(3-(ethyl(methyl)amino)azetidin-1-yl)-6-fluoro-7-(5-fluoroquinolin-8-yl)-1H-[1,2,3]triazolo[4,5-c][1,6]naphthyridin-1-yl)-1-((E)-4-fluorobut-2-enoyl)piperidin-2-yl)acetonitrile], for which the values for the IC50 on KRAS G12C [1] and at KRAS G12C [2] were no more than 100 nM and 100 to 1000 nM, respectively.
For `C=C(F)C(=O)N1CC[C@H](n2nnc3c(N4CC(N(C)CC)C4)nc4c(F)c(-c5n[nH]c6cc(C)c(C)cc56)ncc4c32)C[C@H]1CC#N` [Example 13, 2-((2S,4S)-4-(7-(5,6-dimethyl-1H-indazol-3-yl)-4-(3-(ethyl(methyl)amino)azetidin-1-yl)-6-fluoro-1H-[1,2,3]triazolo[4,5-c][1,6]naphthyridin-1-yl)-1-(2-fluoroacryloyl)piperidin-2-yl)acetonitrile], the IC50 (commonly the concentration needed to halve the response being measured) on KRAS G12C [1] was no more than 100 nM.
As to `C=C(F)C(=O)N1CC[C@H](n2nnc3c(N4CC(N(C)CC)C4)nc4c(F)c(-c5cccc6cccc(C#N)c56)ncc4c32)C[C@H]1CC#N` [Example 14, 8-(1-((2S,4S)-2-(cyanomethyl)-1-(2-fluoroacryloyl)piperidin-4-yl)-4-(3-(ethyl(methyl)amino)azetidin-1-yl)-6-fluoro-1H-[1,2,3]triazolo[4,5-c][1,6]naphthyridin-7-yl)-1-naphthonitrile], the IC50 at KRAS G12C [1] is no more than 100 nM; on KRAS G12C [2], 100 to 1000 nM.
For `CCN(C)C1CN(c2nc3c(F)c(-c4cccc5cccc(C#N)c45)ncc3c3c2nnn3[C@H]2CCN(C(=O)/C=C/CF)[C@H](CC#N)C2)C1` [Example 15, 8-(1-((2S,4S)-2-(cyanomethyl)-1-((E)-4-fluorobut-2-enoyl)piperidin-4-yl)-4-(3-(ethyl(methyl)amino)azetidin-1-yl)-6-fluoro-1H-[1,2,3]triazolo[4,5-c][1,6]naphthyridin-7-yl)-1-naphthonitrile] the same measures were no more than 100 nM and no more than 100 nM.
